Data as given in patent US20060247165A1, “Methods and compositions for encapsulation of cells” (priority 2005, published 2006).
Residues, ends and D or L forms follow the SMILES beside them. *: point of attachment. Butanoyl(4-pyren-1-yl) = O=C(CCCc1ccc2ccc3cccc4ccc1c2c34)*; Palmitoyl = CCCCCCCCCCCCCCCC(=O)*

How the values were obtained:
spinal cord = details: rat, in vivo
Description: Spinal Cord Injection Procedure. Rats were anesthetized using 45 mg/kg Pentobarbital (NEMBUTAL). A laminectomy was performed to expose spinal segment T13 and a stereotaxic micromanipulator (Kopf Instruments) with a Hamilton syringe attached to a 32 gauge needle was used to inject 6 μl at 333 nl/sec of isoosmotic glucose (vehicle) or peptide amphiphile into the spinal cord at T10 at a depth of 1.5 mm. The needle was kept inside the site of injection for 2 minutes after each injection in order to allow the IKVAV-PA to gel without disturbance.

[1] = test system: neural progenitor cells (NPCs); assay: Immunocytochemistry of NPC differentiation (β-tubulin III neurons, GFAP astrocytes) in 3D scaffolds; format: cell-based, mouse
Description: (§1) Cell Culture and In Vitro Encapsulation in IKVAV-PA nano-networks. Neural progenitor cells (NPCs) were cultured as previously described (See, e.g., Zhu et al., J. Neurosci. Res. 59, 312 (2000)). Briefly, the cortices of E13 mouse embryos were dissected and plated on un-treated petri dishes in DMEM/F12 media supplemented with bFGF (10 ng/ml). After four days, mechanically and enzymatically dissociated NPCs and undissociated neurospheres (e.g., undissociated NPC aggregates) were plated onto appropriate substrates (e.g., encapsulated in IKVAV-peptide amphiphile (PA), EQS-PA, or alginate gels, or cultured on laminin, poly-D-lysine, or IKVAV peptide coated cover slips). In all cases this was taken as 0 days in vitro. […]
(§2) Immunocytochemistry. […] Cell imaging was done with a high resolution Cool Snap camera attached to a Nikon TE-2000 fluorescence microscope interfaced with a PC running MetaView imaging software, or an Axiocam camera attached to a Zeiss Axiovert 200 fluorescence microscope interfaced with a PC running AxioVision imaging software.
(§3) Cell Counts. Randomly selected fields of view were imaged for different experimental conditions and cells counted using ImageJ (Scion Corporation) morphometric analysis software. […]

[2] = test system: neural progenitor cells (NPCs); assay: NPC differentiation on two-dimensional coated substrates; format: cell-based, mouse; details: for differentiation into neurons on 2D substrate: cells plated for 1 day
Description: Two-dimensional cultures. For IKVAV peptide experiments, the same 12 mm glass coverslips used for the three-dimensional experiments were soaked in ethanol to encourage hydrophilicity, then spin-coated with 50 μL of a 1 mg/mL IKVAV peptide solution. For IKVAV-PA experiments, the coverslips were coated with PDL (e.g., to encourage adsorption) and subsequently with IKVAV-PA solution. In both cases, the cover slips were allowed to dry overnight and then washed three times with distilled water to remove weakly adherent material before the addition of cell suspension.
NPC differentiation on a two dimensional (2D) substrate coated with IKVAV-PA nanofibers was investigated.

injured spinal cord = assay: Stability of fluorescent peptide amphiphile gel in injured spinal cord; format: in vivo, mouse
Excerpt: Mouse spinal cord injuries, amphiphile injections and animal care. All animal care and surgical interventions were undertaken in strict accordance with the Public Health Service Policy on Humane Care and Use of Laboratory Animals, Guide for the Care and Use of Laboratory Animals (Institute of Laboratory Animal Resources, National Research Council, 1996). The Institutional Animal Care and Use Committee approved of all operative procedures. Female, adult 129 SvJ mice (10 weeks old; Jackson Labs, USA) were anesthetized using avertin intraperitoneally. A laminectomy was performed and the spinal cord was compressed dorsoventrally at T10 by the extradural application of a modified Kerr-Lougheed aneurysm clip for 1 min (FEJOTA mouse clip, University Health Network, Canada). The skin was sutured using AUTOCLIP (9 mm, Becton Dickinson). Post-operatively, animals were kept under a heat-lamp to maintain body temperature. […]
Peptide amphiphile solution or vehicle was injected 24 hours after the spinal cord injury using borosilicate glass capillary micropipettes (Sutter Instruments) (OD: 100 μm). […] The micropipette was manually inserted to a depth of 750 μm measured from the dorsal surface of the cord and 2.5 μl of the diluted amphiphile solution or vehicle was injected at the rate of 2.5 μl/min. […]

[3] = test system: neural progenitor cells (NPCs); assay: Cell body area and neurite length of neurons differentiated from NPCs; format: cell-based, mouse; details: after 1 day
Description: as §1, §2, §3

CCCCCCCCCCCCCCCC(=O)N[C@@H](C)C(=O)N[C@@H](C)C(=O)N[C@@H](C)C(=O)N[C@@H](C)C(=O)NCC(=O)NCC(=O)NCC(=O)N[C@@H](CCC(=O)O)C(=O)N[C@H](C(=O)N[C@@H](CCCCN)C(=O)N[C@H](C(=O)N[C@@H](C)C(=O)N[C@H](C(=O)O)C(C)C)C(C)C)[C@@H](C)CC [IKVAV-PA] (Palmitoyl-AAAAGGGEIKVAV-OH) was tested, and the “toxic effects after spinal cord injection” value (spinal cord) was “no toxic effects”.

For “isolucine-lysine-valine-alanine-valine [IKVAV peptide]”, the “neuron differentiation on titration into EQS-PA scaffolds” value ([1]; increasing amounts of soluble peptide, 1 day) was “failed to induce the extent of neuron differentiation”, the “expression of β-tubulin III and/or GFAP on 2D coated substrate” value [2] was “nearly nonquantifiable amounts” and the “differentiation into neurons on 2D substrate” value [2] was “did not lead to the significant neuron differentiation”.

With CC[C@H](C)[C@H](NC(=O)[C@H](CCC(=O)O)NC(=O)[C@H](C)NC(=O)[C@H](C)NC(=O)[C@H](C)NC(=O)[C@H](CC(C)C)NC(=O)[C@H](CO)NC(=O)[C@H](CC(C)C)NC(=O)[C@H](CO)NC(=O)CCCc1ccc2ccc3cccc4ccc1c2c34)C(=O)N[C@@H](CCCCN)C(=O)N[C@H](C(=O)N[C@@H](C)C(=O)N[C@H](C(=O)O)C(C)C)C(C)C [PA2] ({Butanoyl(4-pyren-1-yl)}-SLSLAAAEIKVAV-OH) the “presence of gel in injured cord” value (injured spinal cord; 5 weeks after injection, 1% solution in isotonic glucose) was “remnants could still be seen” and the “lifetime of the nanofiber scaffold in vivo” value (injured spinal cord; mouse, in vivo) was “on the order of weeks”.

laminin was tested, and the “GFAP expression relative to cells cultured on nanofiber networks” value ([1]; coated substrates) was “significantly greater”, the neurite development [3] was “had not developed neurites” and the “differentiation into neurons on 2D substrate” value [2] was “did not lead to the significant neuron differentiation”.
